Measurements as given in a flash point compilation (Sun et al. 2020).

| SMILES | flash point [°C] |
| --- | --- |
| C[Si](Cl)(Cl)CCCCl [3-Chloropropylmethyldichlorosilane] | 86 |
| CN(C)[Si](C)(C)C [(N,N-Dimethylamino)trimethylsilane] | -19 |
| CC[Si](Cl)(Cl)Cl [Ethyltrichlorosilane] | 22 |

The remaining lines, values ahead:

| flash point [°C] | SMILES |
| --- | --- |
| -32 | C[SiH](Cl)Cl [Methyldichlorosilane] |
| 60 | Cl[SiH](Cl)c1ccccc1 [Phenyldichlorosilane] |
| 38 | C[SiH](C)c1ccccc1 [Phenyldimethylsilane] |
| 112 | C=C[Si]1(C)[Si](C)(C=C)[Si](C)(C=C)[Si]1(C)C=C (centres undefined) [Tetramethyltetravinylcyclotetrasilane] |

Remark: another data set of the same source

| SMILES | flash point [°C] |
| --- | --- |
| C[Si](C)(C)[N]([Sn][N]([Si](C)(C)C)[Si](C)(C)C)[Si](C)(C)C [BIS[BIS(TRIMETHYLSILYL)AMINO]TIN(II)] | 56.00 |
| [CH3][Sn]([CH3])([CH3])[CH2]Cl [CHLOROMETHYLTRIMETHYLTIN] | 39.00 |
| CCC[CH2][Sn]([Cl])([Cl])[CH2]CCC [DI-n-BUTYLDICHLOROTIN] | 168.00 |
| CCC[CH2][Sn]([CH2]CCC)([CH2]CCC)[N](C)C [DIMETHYLAMINOTRI-n-BUTYLTIN] | 115.00 |
| CCCCCCC[CH2][Sn]([Cl])([Cl])[CH2]CCCCCCC [DIOCTYLDICHLOROTIN] | 204.00 |
| C=[CH][Sn]([Cl])([Cl])[CH]=C [DIVINYLDICHLOROTIN] | 204.00 |
| CCC[CH2][Sn]([C]#Cc1ccccc1)([CH2]CCC)[CH2]CCC [PHENYLETHYNYLTRI-n-BUTYLTIN] | 113.00 |
| CCC[CH2][Sn]([CH2]CCC)([CH2]CCC)[S]c1ccccc1 [PHENYLTHIOTRI-n-BUTYLTIN] | 104.00 |
| C=C[CH2][Sn]([CH2]C=C)([CH2]C=C)[CH2]C=C [TETRAALLYLTIN] | 75.00 |
| C[CH2][Sn]([CH2]C)([CH2]C)[CH2]C [TETRAETHYLTIN] | 53.00 |
| CC[N](CC)[Sn]([N](CC)CC)([N](CC)CC)[N](CC)CC [TETRAKIS(DIETHYLAMINO)TIN] | 39.00 |
| C=[CH][Sn]([CH]=C)([CH]=C)[CH]=C [TETRAVINYLTIN] | 40.00 |
| CCC[CH2][Sn]([CH2]CCC)([CH2]CCC)[O]C [TRI-n-BUTYLMETHOXYTIN] | 98.00 |
| [Cl][Sn]([c]1ccccc1)([c]1ccccc1)[c]1ccccc1 [TRIPHENYLCHLOROTIN] | 70.00 |

Remark: another data set of the same source

| SMILES | flash point [°C] |
| --- | --- |
| CN(C)[Si](C)(C)C [(N,N-Dimethylamino)trimethylsilane] | -18.6 |
| CC[Si](Cl)(Cl)Cl [Ethyltrichlorosilane] | -10.00 |

Remark: another data set of the same source

| SMILES | flash point [°C] |
| --- | --- |
| C=C[CH2][Ge]([CH3])([CH3])[CH3] [ALLYLTRIMETHYLGERMANE] | 1.00 |
| [CH3][Ge]([CH3])([CH2]Cl)[CH2]Cl [BIS(CHLOROMETHYL)DIMETHYLGERMANE] | 51.00 |
| CCC[CH2][Ge]([Cl])([Cl])[CH2]CCC [DI-n-BUTYLDICHLOROGERMANE] | 107.00 |
| [Cl][Ge]([Cl])([c]1ccccc1)[c]1ccccc1 [DIPHENYLDICHLOROGERMANE] | 160.00 |
| c1cc[c]([GeH2][c]2ccccc2)cc1 [DIPHENYLGERMANE] | 104.00 |
| C[CH2][Ge]([Cl])([Cl])[Cl] [ETHYLTRICHLOROGERMANE] | 51.00 |
| [CH3][Ge]([CH3])([CH3])[Ge]([CH3])([CH3])[CH3] [HEXAMETHYLDIGERMANE] | 14.00 |
| CCCC[O][Ge]([O]CCCC)([O]CCCC)[O]CCCC [TETRA-n-BUTOXYGERMANE] | 112.00 |

The remaining lines, values ahead:

| flash point [°C] | SMILES |
| --- | --- |
| 63.00 | C=C(C)C(=O)O[CH2][Ge]([CH3])([CH3])[CH3] [METHACRYLOXYMETHYLTRIMETHYLGERMANE] |
| 10.00 | [CH3][Ge]([Cl])([Cl])[Cl] [METHYLTRICHLOROGERMANE] |
| 42.00 | C[CH2][Ge]([CH2]C)([CH2]C)[CH2]C [TETRAETHYLGERMANE] |
| 34.00 | C[N](C)[Ge]([N](C)C)([N](C)C)[N](C)C [TETRAKIS(DIMETHYLAMINO)GERMANE] |
| 34.00 | C[O][Ge]([O]C)([O]C)[O]C [TETRAMETHOXYGERMANE] |
| 37.00 | [CH3][Ge]([CH3])([CH3])[Br] [TRIMETHYLBROMOGERMANE] |
| 32.00 | C=[CH][Ge]([CH2]C)([CH2]C)[CH2]C [VINYLTRIETHYLGERMANE] |
| 34.00 | C[C](C)(C)[Ge]([CH3])([CH3])[Cl] [t-BUTYLDIMETHYLCHLOROGERMANE] |
